According to PubChem BioAssay (NCI):
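1) Cells in 96-well plates. 2) Compound, 48 h, 5 concentrations. 3) Linear interpolation between surrounding doses. 4) Unreached endpoint = highest concentration. The concentration for 50% growth inhibition is given as GI50. Definition used: TGI = concentration required for complete inhibition of growth.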

Experiments:
Experiment in all cases: growth of human tumour cells (NCI), 48 h
T-47D breast = test system: T-47D breast
UO-31 renal = test system: UO-31 renal
BT-549 breast = test system: BT-549 breast
PC-3 prostate = test system: PC-3 prostate
OVCAR-5 ovarian = test system: OVCAR-5 ovarian
K-562 leukemia = test system: K-562 leukemia
UACC-257 melanoma = test system: UACC-257 melanoma
MDA-MB-435 = test system: MDA-MB-435
NCI/ADR-RES ovarian = test system: NCI/ADR-RES ovarian
MCF7 breast = test system: MCF7 breast
SR leukemia = test system: SR leukemia
MDA-MB-231 breast = test system: MDA-MB-231 breast
NCI-H460 lung = test system: NCI-H460 lung
HCC-2998 colon = test system: HCC-2998 colon
OVCAR-8 ovarian = test system: OVCAR-8 ovarian
SF-539 CNS = test system: SF-539 CNS
HOP-62 NSCLC = test system: HOP-62 NSCLC
HL-60(TB) leukemia = test system: HL-60(TB) leukemia
UACC-62 melanoma = test system: UACC-62 melanoma
RPMI-8226 leukemia = test system: RPMI-8226 leukemia
KM12 colon = test system: KM12 colon
OVCAR-4 ovarian = test system: OVCAR-4 ovarian
IGROV1 ovarian = test system: IGROV1 ovarian
HCT-15 colon = test system: HCT-15 colon
DU-145 prostate = test system: DU-145 prostate
MALME-3M melanoma = test system: MALME-3M melanoma
A549 NSCLC = test system: A549 NSCLC
NCI-H23 lung = test system: NCI-H23 lung
SF-268 CNS = test system: SF-268 CNS
MOLT-4 leukemia = test system: MOLT-4 leukemia
LOX IMVI melanoma = test system: LOX IMVI melanoma
HCT-116 colon = test system: HCT-116 colon
786-0 renal = test system: 786-0 renal
SW-620 colon = test system: SW-620 colon
SF-295 CNS = test system: SF-295 CNS
SNB-75 CNS = test system: SNB-75 CNS
SK-OV-3 ovarian = test system: SK-OV-3 ovarian
U251 CNS = test system: U251 CNS
CAKI-1 renal = test system: CAKI-1 renal
A498 renal = test system: A498 renal
COLO 205 colon = test system: COLO 205 colon
SK-MEL-28 melanoma = test system: SK-MEL-28 melanoma
SNB-19 CNS = test system: SNB-19 CNS
SK-MEL-5 melanoma = test system: SK-MEL-5 melanoma
RXF 393 renal = test system: RXF 393 renal
ACHN renal = test system: ACHN renal
SN12C renal = test system: SN12C renal
HS 578T breast = test system: HS 578T breast
NCI-H226 lung = test system: NCI-H226 lung
OVCAR-3 ovarian = test system: OVCAR-3 ovarian
HOP-92 NSCLC = test system: HOP-92 NSCLC
SK-MEL-2 melanoma = test system: SK-MEL-2 melanoma
M14 melanoma = test system: M14 melanoma
NCI-H522 lung = test system: NCI-H522 lung
CCRF-CEM leukemia = test system: CCRF-CEM leukemia
HT29 colon = test system: HT29 colon
TK-10 renal = test system: TK-10 renal

O=C(NC1CCN(Cc2ccccc2)CC1)c1cc(-c2cccnc2)nc2ccc(Cl)cc12
GI50 (T-47D breast): 3.7 µM
TGI (T-47D breast): 53.1 µM
GI50 (UO-31 renal): 4.24 µM
TGI (UO-31 renal): 21.4 µM
GI50 (BT-549 breast): 24.8 µM
TGI (BT-549 breast): > 100 µM
GI50 (PC-3 prostate): 6.16 µM
TGI (PC-3 prostate): > 100 µM
GI50 (OVCAR-5 ovarian): 10.8 µM
TGI (OVCAR-5 ovarian): > 100 µM
GI50 (K-562 leukemia): 3.43 µM
TGI (K-562 leukemia): 76.8 µM
GI50 (UACC-257 melanoma): > 100 µM
TGI (UACC-257 melanoma): > 100 µM
GI50 (MDA-MB-435): 9.96 µM
TGI (MDA-MB-435): > 100 µM
GI50 (NCI/ADR-RES ovarian): 15.6 µM
TGI (NCI/ADR-RES ovarian): > 100 µM
GI50 (MCF7 breast): 4.78 µM
TGI (MCF7 breast): > 100 µM
GI50 (SR leukemia): 2.71 µM
TGI (SR leukemia): 12.9 µM
GI50 (MDA-MB-231 breast): 2.47 µM
TGI (MDA-MB-231 breast): 13.1 µM
GI50 (NCI-H460 lung): 4.24 µM
TGI (NCI-H460 lung): 21.7 µM
GI50 (HCC-2998 colon): 5.51 µM
TGI (HCC-2998 colon): > 100 µM
GI50 (OVCAR-8 ovarian): 10.4 µM
TGI (OVCAR-8 ovarian): 35.4 µM
GI50 (SF-539 CNS): 11.9 µM
TGI (SF-539 CNS): 24.2 µM
GI50 (HOP-62 NSCLC): 11.8 µM
TGI (HOP-62 NSCLC): 31.5 µM
GI50 (HL-60(TB) leukemia): 8.27 µM
TGI (HL-60(TB) leukemia): 45.2 µM
GI50 (UACC-62 melanoma): 17.4 µM
TGI (UACC-62 melanoma): > 100 µM
GI50 (RPMI-8226 leukemia): 6.62 µM
TGI (RPMI-8226 leukemia): > 100 µM
GI50 (KM12 colon): 13.7 µM
TGI (KM12 colon): > 100 µM
GI50 (OVCAR-4 ovarian): 9.01 µM
TGI (OVCAR-4 ovarian): 68.5 µM
GI50 (IGROV1 ovarian): 16.1 µM
TGI (IGROV1 ovarian): 81.8 µM
GI50 (HCT-15 colon): 4.57 µM
TGI (HCT-15 colon): 30.5 µM
GI50 (DU-145 prostate): 8.78 µM
TGI (DU-145 prostate): > 100 µM
GI50 (MALME-3M melanoma): 7.92 µM
TGI (MALME-3M melanoma): > 100 µM
GI50 (A549 NSCLC): 4.61 µM
TGI (A549 NSCLC): 44.8 µM
GI50 (NCI-H23 lung): 18 µM
TGI (NCI-H23 lung): > 100 µM
GI50 (SF-268 CNS): 9.27 µM
TGI (SF-268 CNS): 70.1 µM
GI50 (MOLT-4 leukemia): 3.05 µM
TGI (MOLT-4 leukemia): 9.82 µM
GI50 (LOX IMVI melanoma): 3.27 µM
TGI (LOX IMVI melanoma): 17.2 µM
GI50 (HCT-116 colon): 5.47 µM
TGI (HCT-116 colon): 26.4 µM
GI50 (786-0 renal): 4.63 µM
TGI (786-0 renal): 17.7 µM
GI50 (SW-620 colon): 11.5 µM
TGI (SW-620 colon): > 100 µM
GI50 (SF-295 CNS): 10.6 µM
TGI (SF-295 CNS): 26 µM
GI50 (SNB-75 CNS): 2.18 µM
TGI (SNB-75 CNS): 12.7 µM
GI50 (SK-OV-3 ovarian): 14.1 µM
TGI (SK-OV-3 ovarian): 42.7 µM
GI50 (U251 CNS): 6.94 µM
TGI (U251 CNS): 22.5 µM
GI50 (CAKI-1 renal): 3.24 µM
TGI (CAKI-1 renal): 19.1 µM
TGI (A498 renal): 5.49 µM
GI50 (COLO 205 colon): 5.28 µM
TGI (COLO 205 colon): > 100 µM
GI50 (SK-MEL-28 melanoma): 16.3 µM
TGI (SK-MEL-28 melanoma): > 100 µM
GI50 (SNB-19 CNS): 11.6 µM
TGI (SNB-19 CNS): 42.3 µM
GI50 (SK-MEL-5 melanoma): 3.91 µM
TGI (SK-MEL-5 melanoma): > 100 µM
GI50 (RXF 393 renal): 4.18 µM
TGI (RXF 393 renal): 19.4 µM
GI50 (ACHN renal): 2.36 µM
TGI (ACHN renal): 6.54 µM
GI50 (SN12C renal): 5.2 µM
TGI (SN12C renal): 29.2 µM
GI50 (HS 578T breast): 9.9 µM
TGI (HS 578T breast): 39.4 µM
GI50 (NCI-H226 lung): 9.72 µM
TGI (NCI-H226 lung): 50.3 µM
GI50 (OVCAR-3 ovarian): 11.3 µM
TGI (OVCAR-3 ovarian): 28 µM

CCn1cnc(C[C@H](NC(=O)[C@H](CCCCNC(=O)Nc2cc(C(F)(F)F)cc(C(F)(F)F)c2)NC(=O)Nc2cc(C(F)(F)F)cc(C(F)(F)F)c2)C(=O)OC)c1
GI50 (T-47D breast): 4.83 µM
TGI (T-47D breast): > 10 µM
GI50 (UO-31 renal): > 10 µM
TGI (UO-31 renal): > 10 µM
GI50 (BT-549 breast): > 10 µM
TGI (BT-549 breast): > 10 µM
GI50 (HOP-92 NSCLC): 2.24 µM
TGI (HOP-92 NSCLC): 9.81 µM
GI50 (PC-3 prostate): 2.82 µM
TGI (PC-3 prostate): > 10 µM
GI50 (OVCAR-5 ovarian): > 10 µM
TGI (OVCAR-5 ovarian): > 10 µM
GI50 (UACC-257 melanoma): > 10 µM
TGI (UACC-257 melanoma): > 10 µM
GI50 (MDA-MB-435): 8.46 µM
TGI (MDA-MB-435): > 10 µM
GI50 (NCI/ADR-RES ovarian): > 10 µM
TGI (NCI/ADR-RES ovarian): > 10 µM
GI50 (MCF7 breast): 3.51 µM
TGI (MCF7 breast): > 10 µM
GI50 (MDA-MB-231 breast): 2.58 µM
TGI (MDA-MB-231 breast): 6.37 µM
GI50 (NCI-H460 lung): 3.43 µM
TGI (NCI-H460 lung): > 10 µM
GI50 (HCC-2998 colon): 3.98 µM
TGI (HCC-2998 colon): > 10 µM
GI50 (OVCAR-8 ovarian): 5.02 µM
TGI (OVCAR-8 ovarian): > 10 µM
GI50 (SF-539 CNS): > 10 µM
TGI (SF-539 CNS): > 10 µM
GI50 (HOP-62 NSCLC): 9.32 µM
TGI (HOP-62 NSCLC): > 10 µM
GI50 (UACC-62 melanoma): > 10 µM
TGI (UACC-62 melanoma): > 10 µM
GI50 (RPMI-8226 leukemia): 3.08 µM
TGI (RPMI-8226 leukemia): > 10 µM
GI50 (SK-MEL-2 melanoma): > 10 µM
TGI (SK-MEL-2 melanoma): > 10 µM
GI50 (KM12 colon): 4.41 µM
TGI (KM12 colon): > 10 µM
GI50 (OVCAR-4 ovarian): 3.51 µM
TGI (OVCAR-4 ovarian): > 10 µM
GI50 (M14 melanoma): 6.29 µM
TGI (M14 melanoma): > 10 µM
GI50 (IGROV1 ovarian): 5.27 µM
TGI (IGROV1 ovarian): > 10 µM
GI50 (HCT-15 colon): > 10 µM
TGI (HCT-15 colon): > 10 µM
GI50 (DU-145 prostate): 5.49 µM
TGI (DU-145 prostate): > 10 µM
GI50 (MALME-3M melanoma): > 10 µM
TGI (MALME-3M melanoma): > 10 µM
GI50 (A549 NSCLC): 3.97 µM
TGI (A549 NSCLC): > 10 µM
GI50 (NCI-H23 lung): 5.98 µM
TGI (NCI-H23 lung): > 10 µM
GI50 (SF-268 CNS): 6.04 µM
TGI (SF-268 CNS): > 10 µM
GI50 (NCI-H522 lung): 5.19 µM
TGI (NCI-H522 lung): > 10 µM
GI50 (LOX IMVI melanoma): 3.56 µM
TGI (LOX IMVI melanoma): > 10 µM
GI50 (HCT-116 colon): 3.87 µM
TGI (HCT-116 colon): > 10 µM
GI50 (CCRF-CEM leukemia): 3.04 µM
TGI (CCRF-CEM leukemia): > 10 µM
GI50 (786-0 renal): 8.78 µM
TGI (786-0 renal): > 10 µM
GI50 (SW-620 colon): 6.86 µM
TGI (SW-620 colon): > 10 µM
GI50 (SF-295 CNS): > 10 µM
TGI (SF-295 CNS): > 10 µM
GI50 (SNB-75 CNS): 1.37 µM
TGI (SNB-75 CNS): > 10 µM
GI50 (SK-OV-3 ovarian): > 10 µM
TGI (SK-OV-3 ovarian): > 10 µM
GI50 (U251 CNS): 3.8 µM
TGI (U251 CNS): > 10 µM
GI50 (CAKI-1 renal): > 10 µM
TGI (CAKI-1 renal): > 10 µM
GI50 (A498 renal): > 10 µM
TGI (A498 renal): > 10 µM
GI50 (COLO 205 colon): > 10 µM
TGI (COLO 205 colon): > 10 µM
GI50 (SK-MEL-28 melanoma): 6.62 µM
TGI (SK-MEL-28 melanoma): > 10 µM
GI50 (SNB-19 CNS): 5.1 µM
TGI (SNB-19 CNS): > 10 µM
GI50 (SK-MEL-5 melanoma): 7.75 µM
TGI (SK-MEL-5 melanoma): > 10 µM
GI50 (RXF 393 renal): 4.24 µM
TGI (RXF 393 renal): > 10 µM
GI50 (ACHN renal): 5.61 µM
TGI (ACHN renal): > 10 µM
GI50 (SN12C renal): 5.69 µM
TGI (SN12C renal): > 10 µM
GI50 (HT29 colon): 3.97 µM
TGI (HT29 colon): > 10 µM
GI50 (HS 578T breast): 4.49 µM
TGI (HS 578T breast): > 10 µM
GI50 (NCI-H226 lung): > 10 µM
TGI (NCI-H226 lung): > 10 µM
GI50 (OVCAR-3 ovarian): 3.32 µM
TGI (OVCAR-3 ovarian): > 10 µM
GI50 (TK-10 renal): 7.46 µM
TGI (TK-10 renal): > 10 µM
